Measurements taken from ChEMBL document CHEMBL5331122, “Structure-Activity Relationship Study of Antimicrobial Peptide PE2 Delivered Novel Linear Derivatives with Potential of Eradicating Biofilms and Low Incidence of Drug Resistance” (J Med Chem, 2023).
Values after ≈ are worked out from the molar mass of the structure shown. Active and inactive are the calls of the source. The calls are words filed in the database; no cut-off is given here.

What was measured:
[1] = test system: Escherichia coli; experiment: Antibacterial activity against Escherichia coli ATCC 25922 assessed as bacterial growth inhibition incubated for 18 hrs by broth microdilution method; assay type: functional
[2] = test system: Klebsiella pneumoniae; experiment: Antibacterial activity against Klebsiella pneumoniae ATCC 700603 assessed as bacterial growth inhibition incubated for 18 hrs by broth microdilution method; assay type: functional
[3] = test system: Pseudomonas aeruginosa; experiment: Antibacterial activity against Pseudomonas aeruginosa ATCC 27853 assessed as bacterial growth inhibition incubated for 18 hrs by broth microdilution method; assay type: functional
[4] = test system: Staphylococcus aureus; experiment: Antimicrobial activity against methicillin-resistant Staphylococcus aureus ATCC 33591 assessed as inhibition of microbial growth incubated for 18 hrs by broth microdilution analysis; assay type: functional, organism-based; conditions: ATCC 33591, 18 h
[5] = Cytotoxicity against human HEK293T cells assessed as inhibition of cell growth incubated for 24 hrs by resazurin dye based analysis; assay type: toxicity, HEK-293T
[6] = test system: Escherichia coli; experiment: Antibacterial activity against Escherichia coli ATCC 25922 assessed as fold increase in MIC in presence of FeCl3; assay type: functional
[7] = test system: Staphylococcus aureus; experiment: Antibacterial activity against Staphylococcus aureus ATCC 25923 assessed as fold increase in MIC in presence of NaCl; assay type: functional
[8] = test system: Staphylococcus aureus; experiment: Antibacterial activity against Staphylococcus aureus ATCC 25923 assessed as fold increase in MIC in presence of FeCl3; assay type: functional
[9] = test system: Escherichia coli; experiment: Inhibition of biofilm formation in Escherichia coli ATCC 25922 assessed as inhibition of biofilm formation incubated for 24 hrs by crystal violet staining based analysis; assay type: functional, organism-based
[10] = test system: Staphylococcus aureus; experiment: Inhibition of biofilm formation in Staphylococcus aureus ATCC 25923 assessed as inhibition of biofilm formation at 1/4 times MIC incubated for 24 hrs by crystal violet staining based analysis; assay type: functional, organism-based
[11] = test system: Escherichia coli; experiment: Antibacterial activity against gentamycin-resistant Escherichia coli ATCC 25922 assessed as reduction in bacterial growth incubated for 18 hrs by broth microdilution method; assay type: functional
[12] = test system: Staphylococcus aureus; experiment: Antibacterial activity against gentamycin-resistant Staphylococcus aureus ATCC 25923 assessed as reduction in bacterial growth incubated for 18 hrs by broth microdilution method; assay type: functional
[13] = test system: Escherichia coli; experiment: Antibacterial activity against rifampicin-resistant Escherichia coli ATCC 25922 assessed as reduction in bacterial growth incubated for 18 hrs by broth microdilution method; assay type: functional
[14] = test system: Staphylococcus aureus; experiment: Antibacterial activity against rifampicin-resistant Staphylococcus aureus ATCC 25923 assessed as reduction in bacterial growth incubated for 18 hrs by broth microdilution method; assay type: functional
[15] = test system: Escherichia coli; experiment: Additive antibacterial activity against Escherichia coli ATCC 25922 assessed as bacterial growth inhibition incubated for 18 hrs in presence of gentamycin by checkerboard assay; assay type: functional, organism-based
[16] = test system: Escherichia coli; experiment: Additive antibacterial activity against Escherichia coli ATCC 25922 assessed as bacterial growth inhibition incubated for 18 hrs in presence of rifampicin by checkerboard assay; assay type: functional, organism-based
[17] = test system: Staphylococcus aureus; experiment: Additive antibacterial activity against Staphylococcus aureus ATCC 25923 assessed as bacterial growth inhibition incubated for 18 hrs in presence of gentamycin by checkerboard assay; assay type: functional, organism-based
[18] = test system: Staphylococcus aureus; experiment: Additive antibacterial activity against Staphylococcus aureus ATCC 25923 assessed as bacterial growth inhibition incubated for 18 hrs in presence of rifampicin by checkerboard assay; assay type: functional, organism-based
[19] = test system: Escherichia coli; experiment: Additive antibacterial activity against gentamycin-resistant Escherichia coli ATCC 25922 incubated for 18 hrs by checkerboard assay; assay type: functional, organism-based
[20] = test system: Escherichia coli; experiment: Additive antibacterial activity against rifampicin-resistant Escherichia coli ATCC 25922 incubated for 18 hrs by checkerboard assay; assay type: functional, organism-based
[21] = test system: Escherichia coli; experiment: Bactericidal activity against Escherichia coli ATCC 25922 assessed as inhibition of bacterial growth at 1 times MIC measured at 180 mins by time-kill assay; assay type: functional, organism-based
[22] = test system: Staphylococcus aureus; experiment: Bactericidal activity against Staphylococcus aureus ATCC 25923 assessed as inhibition of bacterial growth incubated upto 360 mins by time-kill assay; assay type: functional, organism-based
[23] = test system: Escherichia coli; experiment: Bactericidal activity against Escherichia coli ATCC 25922 assessed as inhibition of bacterial growth at 1/2 times MIC measured at 180 mins by time-kill assay; assay type: functional, organism-based
[24] = test system: Staphylococcus aureus; experiment: Bactericidal activity against Staphylococcus aureus ATCC 25923 assessed as inhibition of bacterial growth at 0.5 to 2 times MIC measured at 120 mins by time-kill assay; assay type: functional, organism-based
[25] = test system: Escherichia coli; experiment: Antimicrobial activity against Escherichia coli ATCC 25922 assessed as reduction in microbial growth measured for 18 hrs in presence of 512 microg/ml LPS; assay type: functional, organism-based
[26] = test system: Cell membrane; experiment: Induction of outer membrane permeabilization in Escherichia coli ATCC 25922 assessed as increase in fluorescence intensity at 2 times MIC measured for 12 hrs by NPN uptake assay; assay type: subcellular
[27] = test system: Cell membrane; experiment: Induction of inner membrane permeabilization in Escherichia coli ML-35 ATCC 43837 assessed as increase in fluorescence intensity at 1 to 4 times MIC incubated upto 150 mins by ONPG staining based analysis; assay type: subcellular
[28] = test system: Cell membrane; experiment: Induction of cell membrane damage in Staphylococcus aureus ATCC 25923 at 2 times MIC after 0.5 to 2 hrs by propidium iodide staining based flow cytometer assay; assay type: subcellular; conditions: time 0.5-2 hrs
[29] = test system: Cell membrane; experiment: Induction of cell membrane damage in Staphylococcus aureus ATCC 25923 at 2 times MIC measured at 30 mins by propidium iodide staining based flow cytometer assay; assay type: subcellular
[30] = test system: Staphylococcus aureus; experiment: Induction of membrane morphological changes in Staphylococcus aureus ATCC 25923 assessed as appearance of broken bacterial cells at 4 times MIC measured at 0.5 to 2 hrs by SEM analysis; assay type: functional, organism-based; conditions: time 0.5-2 hrs
[31] = test system: Staphylococcus aureus; experiment: Induction of membrane morphological changes in Staphylococcus aureus ATCC 25923 assessed as appearance of blistered bacterial cells at 4 times MIC measured at 0.5 to 2 hrs by SEM analysis; assay type: functional, organism-based; conditions: time 0.5-2 hrs
[32] = test system: Klebsiella pneumoniae; experiment: Antibacterial activity against Klebsiella pneumoniae ATCC 700603 infected in BALB/c mouse pneumonia model at 5 to 10 mg/kg, ip measured at 4 to 12 hrs; assay type: functional, organism-based; conditions: dose 5-10 mg/kg, time 4-12 hrs
[33] = test system: Klebsiella pneumoniae; experiment: Antibacterial activity against Klebsiella pneumoniae ATCC 700603 infected in BALB/c mouse pneumonia model assessed as reduction in lung bacterial load at 5 to 10 mg/kg, ip measured at 4 to 12 hrs; assay type: functional, organism-based; conditions: dose 5-10 mg/kg, time 4-12 hrs
[34] = test system: Klebsiella pneumoniae; experiment: Antibacterial activity against Klebsiella pneumoniae ATCC 700603 infected in BALB/c mouse pneumonia model assessed as reduction in infiltration of inflammatory cells at 5 to 10 mg/kg, ip measured at 4 to 12 hrs by hematoxylin and eosin staining based analysis; assay type: functional, organism-based; conditions: dose 5-10 mg/kg, time 4-12 hrs
[35] = test system: Klebsiella pneumoniae; experiment: Antibacterial activity against Klebsiella pneumoniae ATCC 700603 infected in BALB/c mouse pneumonia model assessed as alveolar expansion at 5 to 10 mg/kg, ip measured at 4 to 12 hrs by hematoxylin and eosin staining based analysis; assay type: functional, organism-based; conditions: dose 5-10 mg/kg, time 4-12 hrs
[36] = Acute toxicity in Kunming mouse assessed as survival rate at 20 mg/kg, ip measured for 7 days; assay type: organism-based; conditions: in vivo, 168 h, time 7 day
[37] = Acute toxicity in ip dosed Kunming mouse assessed as lethal dose measured upto 7 days; assay type: organism-based; conditions: in vivo, time < 7 day; for LD50 at 168 h: Kunming
[38] = test system: Staphylococcus aureus; experiment: Additive antibacterial activity against gentamycin-resistant Staphylococcus aureus ATCC 25923 incubated for 18 hrs in presence of gentamycin by checkerboard assay; assay type: functional, organism-based
[39] = test system: Escherichia coli; experiment: Antimicrobial activity against Escherichia coli ATCC 25922 assessed as reduction in microbial growth measured for 18 hrs in presence of 64 microg/ml LPS; assay type: functional, organism-based

Compound | MIC [1] | MIC [2] | MIC [3] | EC50 [4] | IC50 at 24 h [5] | fold change (FC) [6] | fold change (FC) [7] | fold change (FC) [8] | inhibition [9] | inhibition [10] | MIC [11] | Activity [22] | Activity [23] | Activity [25] | Activity [26] | Activity [27] | Activity [28] | Activity [29] | Activity [30] | Activity [31] | other results
CCCCCCCC(=O)N[C@@H](CCN)C(=O)N[C@H](C(=O)N[C@@H](CCN)C(=O)N[C@H](Cc1ccccc1)C(=O)N[C@@H](CC(C)C)C(=O)N[C@@H](CCN)C(=O)N[C@@H](C(=O)N[C@@H](CC(C)C)C(=O)N[C@@H](Cc1ccc(O)cc1)C(N)=O)C(C)C)[C@@H](C)CC | 4 µg/mL (≈ 3.35 µM) | 8 µg/mL (≈ 6.71 µM) | 4 µg/mL (≈ 3.35 µM) | 2.99 µg/mL | 24.2 µg/mL (≈ 20.3 µM) | <=2 | <=2 | <=2 | Dose-Dependent Effect | Active | 2 µg/mL (≈ 1.68 µM) | Dose-Dependent Effect | Active | inactive | inactive | Active | Active | inactive | Active | Active | MIC [12]: 8 µg/mL (≈ 6.71 µM); MIC [13]: < 8 µg/mL; MIC [14]: < 8 µg/mL; Activity [15]: Active; Activity [16]: Active; Activity [17]: Active; Activity [18]: Active; Activity [19]: Active; Activity [20]: Active; Activity [21]: Active; Activity [24]: Active; Activity [32]: Active; Activity [33]: Active; Activity [34]: Active; Activity [35]: Active; Activity [36]: Non-Toxic; LD50 at 168 h [37]: 33.6 mg/kg; LD ([37]; ip, 168 h): 80 mg/kg
CCCCCCC(=O)N[C@@H](CCN)C(=O)N[C@H](C(=O)N[C@@H](CCN)C(=O)N[C@H](Cc1ccccc1)C(=O)N[C@@H](CC(C)C)C(=O)N[C@@H](CCN)C(=O)N[C@@H](C(=O)N[C@@H](CC(C)C)C(=O)N[C@@H](Cc1ccc(O)cc1)C(N)=O)C(C)C)[C@@H](C)CC | 8 µg/mL (≈ 6.79 µM) | 8 µg/mL (≈ 6.79 µM) | 4 µg/mL (≈ 3.39 µM) | 4.65 µg/mL | 32.5 µg/mL (≈ 27.6 µM) | <=2 | <=2 | <=2 | Dose-Dependent Effect | Active | 4 µg/mL (≈ 3.39 µM) | Dose-Dependent Effect | Active | inactive | Active | Active | Active | inactive | Active | Active | MIC [12]: 8 µg/mL (≈ 6.79 µM); MIC [13]: < 8 µg/mL; MIC [14]: < 8 µg/mL; Activity [19]: Active; Activity [20]: Active; Activity [38]: Active; Activity [21]: Active; Activity [39]: Active; Activity [32]: Active; Activity [33]: Active; Activity [34]: Active; Activity [35]: Active; Activity [36]: Non-Toxic; LD50 at 168 h [37]: 32 mg/kg
CC[C@H](C)[C@@H]1NC(=O)[C@H](CCN)NC(=O)C[C@@H](C(C)C)OC(=O)[C@H]([C@@H](C)O)NC(=O)[C@H](CC(C)C)NC(=O)[C@@H](C(C)C)NC(=O)[C@H](CCN)NC(=O)[C@H](CC(C)C)NC(=O)[C@@H](Cc2ccccc2)NC(=O)[C@H](CCN)NC1=O | 8 µg/mL (≈ 7.26 µM) | 4 µg/mL (≈ 3.63 µM) | 8 µg/mL (≈ 7.26 µM) |  | 29.2 µg/mL (≈ 26.5 µM) | <=2 | <=2 | <=2 | Dose-Dependent Effect | Active |  | Dose-Dependent Effect | Active | inactive | Active | Active | Active | inactive | Active | Active | Activity [15]: Active; Activity [16]: Active; Activity [17]: Active; Activity [18]: Active; Activity [38]: Active; Activity [24]: Active; Activity [39]: Active
